In PubChem BioAssay (NCI):
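All cell lines were grown in 96-well plates and treated with compound for 48 hours. TGI marks complete inhibition of growth.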

Columns and labels:
[1] = system: DMS 114 small cell lung; assay: NCI tumour cell line growth inhibition, 48 h
[2] = system: RXF-631 renal; assay: NCI tumour cell line growth inhibition, 48 h

SMILES	TGI [1] [µM]	TGI [2] [µM]
CN1C(=O)c2cccc3c([N+](=O)[O-])ccc(c23)C1=O	11.2	17.6
COc1cc([C@@H]2c3cc4c(cc3[C@@H](NC(=O)c3ccc(C(C)=O)cc3)C3COC(=O)[C@@H]32)OCO4)cc(OC)c1O (stereo partly specified)	4.74	10.6
CC1=CC(=O)c2cccc(O)c2C1=O	7.89	
COc1ccc(OC)c2c1C(=O)C(Cl)=C(Cl)C2=O	4.76	
CCN(CC)CCNC(=O)c1ccccc1Nc1c(Cl)cccc1Cl	24.8	
CCCN(CCC)C(=O)Cc1c2n(c3ccccc13)CCCc1ccccc1-2	24.1	
CCCC/C=C1\CCC(CN2CCOCC2)C1=O (stereo unspecified)	15.8	29.2
O=C1c2ccccc2N2OC3C4CCC(C4)C3C12c1ccccc1 (stereo unspecified)	> 100	
CCCCC/C=C1\CCC(CN2CCOCC2)C1=O (stereo unspecified)	38.5	44.9
O=C(Cc1ccccc1)NN1C(=O)C(Cl)C1c1cc(Br)cc(Br)c1O (stereo unspecified)	17.8	
CSc1ccc2c(cc1=O)C(NC(=O)c1cc(O)c(OC(=O)O)c(O)c1)CCc1cc(O)c(O)c(O)c1-2 (stereo unspecified)	36	
COc1ccccc1OCc1nnc(SCC(=O)O)n1-c1ccccc1	> 100	
CCOC(=O)NC(=O)c1cn(-c2ccc(CCOC(=O)CCCCCCCCC(=O)OCCc3ccc(-n4cc(C(=O)NC(=O)OCC)c(=O)[nH]c4=O)cc3)cc2)c(=O)[nH]c1=O	> 100	> 100
CCOP(=O)(C/C(=N/NC(C)(C)C)C(=O)Nc1nc2ccc(C)cc2s1)OCC	> 100	> 100
CN(C)CC1CCC(CN(C)C)C1=NO (stereo unspecified)	> 100	
CCC(=O)NCC1(c2c[nH]c3ccccc23)SCCS1	> 100	
COC(=O)C(=O)C(C(=O)C(=O)Nc1ccc([N+](=O)[O-])cc1C#N)c1nc2ccc([N+](=O)[O-])cc2[nH]c1=O (stereo unspecified)	> 100	
CC(=O)C1CC2(c3ccccc3)C(=O)c3ccccc3N2O1 (stereo unspecified)	> 100	
CC1(Br)C(=O)NC(=O)N([C@H]2C[C@H](O)[C@@H](CO)O2)C1N=[N+]=[N-] (stereo partly specified)	> 100	> 100
